# Biological target: CCR2 (Homo sapiens (Human), UniProt P41597)
# Test: Calcium activity assayed on the FLIPR Tetra in HEK-Gqi5 cells stably expressing CCR2
# Format: cell-based
# Conditions: FLIPR Tetra calcium assay
# Method: HEK-Gqi5 cells stably expressing CCR2 were cultured in (DMEM high glucose, 10% FBS, 1% PSA, 400 μg/ml geneticin and 50 μg/ml hygromycin. Appropriate positive control chemokines (MCP-1, MIP1A or RANTES) was used as the positive control agonist for screening compound-induced calcium activity assayed on the FLIPR^Tetra. The drug plates were prepared in 384-well microplates using the EP3 and the MuItiPROBE robotic liquid handling systems. Compounds were synthesized and tested for CCR^2 activity.
# Sequence of CCR2 (P41597 whole entry, species assumed): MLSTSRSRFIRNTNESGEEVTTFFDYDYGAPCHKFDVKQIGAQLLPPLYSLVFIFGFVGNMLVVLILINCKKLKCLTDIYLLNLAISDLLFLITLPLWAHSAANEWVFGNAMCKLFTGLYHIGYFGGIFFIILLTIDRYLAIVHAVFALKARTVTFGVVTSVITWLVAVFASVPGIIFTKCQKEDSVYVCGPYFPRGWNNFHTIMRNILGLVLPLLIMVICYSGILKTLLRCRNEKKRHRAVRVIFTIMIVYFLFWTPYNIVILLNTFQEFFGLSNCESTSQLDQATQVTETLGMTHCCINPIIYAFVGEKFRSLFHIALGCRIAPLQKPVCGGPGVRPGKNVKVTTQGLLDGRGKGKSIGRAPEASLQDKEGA
SMILES,CCR2 % ANTAGONISM [%],IC50 [nM]
NC(=O)NCC[S+]([O-])c1ccc(Cl)cc1NS(=O)(=O)c1cc2ccccc2o1 (stereo not shown) [N-[2-({2-[(aminocarbonyl)amino]ethyl}sulfinyl)-5-chlorophenyl]-1-benzofuran-2-sulfonamide],64,1890
CSc1ccc(Cl)cc1NS(=O)(=O)c1ccc(Cl)cc1 [4-chloro-N-[5-chloro-2-(methylthio)phenyl]benzenesulfonamide],94,406
"CC(=O)Nc1nc(CS(=O)(=O)c2ccc(Cl)cc2NS(=O)(=O)c2cc3ccccc3o2)cs1 [Compound 237, N-{-4-[({2-[(1-benzofuran-2-ylsulfonyl)amino]-4-chlorophenyl}sulfonyl)methyl]-1,3-thiazol-2-yl}acetamide]",87,–
"O=C1NCC(CS(=O)(=O)c2ccc(Cl)cc2NS(=O)(=O)c2cc3ccccc3o2)O1 (stereo not shown) [N-(5-chloro-2-{[(2-oxo-1,3-oxazolidin-5-yl)methyl]sulfonyl}phenyl)-1-benzofuran-2-sulfonamide]",98,2560
C[S+]([O-])c1ccc(Cl)cc1NS(=O)(=O)c1ccccc1 (stereo not shown) [N-[5-chloro-2-(methylsulfinyl)phenyl]benzenesulfonamide],48,–
"C[S+]([O-])c1ccc(Cl)cc1NS(=O)(=O)c1ccc(F)cc1F (stereo not shown) [N-[5-chloro-2-(methylsulfinyl)phenyl]-2,4-difluorobenzenesulfonamide]",98,236
Nc1cccc(C[S+]([O-])c2ccc(Cl)cc2NS(=O)(=O)c2ccc(Cl)cc2)c1 (stereo not shown) [N-{2-[(3-aminobenzyl)sulfinyl]-5-chlorophenyl}-4-chlorobenzenesulfonamide],99,159
CSc1ccc(Cl)cc1NS(=O)(=O)c1cccs1 [N-[5-chloro-2-(methylthio)phenyl]thiophene-2-sulfonamide],0,–
Nc1cccc(CS(=O)(=O)c2ccc(Cl)cc2NS(=O)(=O)c2ccc(Cl)cc2F)c1 [N-{2-[(3-aminobenzyl)sulfonyl]-5-chlorophenyl}-4-chloro-2-fluorobenzenesulfonamide],96,248
Nc1cccc(CS(=O)(=O)c2ccc(Cl)cc2NS(=O)(=O)c2ccccc2)c1 [N-{2-[(3-aminobenzyl)sulfonyl]-5-chlorophenyl}benzenesulfonamide],52,1240
"CN(C)C(=O)CS(=O)(=O)c1ccc(Cl)cc1NS(=O)(=O)c1ccc(Cl)c(C(F)(F)F)c1 [2-{[4-chloro-2-({[4-chloro-3-(trifluoromethyl)phenyl]sulfonyl}amino)phenyl]sulfonyl}-N,N-dimethylacetamide]",98,462
O=S(=O)(Nc1cc(Cl)ccc1[S+]([O-])Cc1ncc[nH]1)c1ccc(Cl)c(C(F)(F)F)c1 (stereo not shown) [4-chloro-N-{5-chloro-2-[(1H-imidazol-2-ylmethyl)sulfinyl]phenyl}-3-(trifluoromethyl)benzenesulfonamide],109,163
Nc1cccc(CSc2ccc(Cl)cc2NS(=O)(=O)c2ccc(Cl)cc2)c1 [N-{2-[(3-aminobenzyl)thio]-5-chlorophenyl}-4-chlorobenzenesulfonamide],95,3890
Nc1ccccc1CS(=O)(=O)c1ccc(Cl)cc1NS(=O)(=O)c1cc2ccccc2o1 [N-{2-[(2-aminobenzyl)sulfonyl]-5-chlorophenyl}-1-benzofuran-2-sulfonamide],98,129
C[S+]([O-])c1ccc(Cl)cc1NS(=O)(=O)c1ccc(I)cc1 (stereo not shown) [N-[5-chloro-2-(methylsulfinyl)phenyl]-4-iodobenzenesulfonamide],95,258
O=S(=O)(CCO)c1ccc(Cl)cc1NS(=O)(=O)c1ccc(Cl)c(C(F)(F)F)c1 [4-chloro-N-{5-chloro-2-[(2-hydroxyethyl)sulfonyl]phenyl}-3-(trifluoromethyl)benzenesulfonamide],96,95
Nc1cccc(C[S+]([O-])c2ccccc2NS(=O)(=O)c2cc3ccccc3o2)c1 (stereo not shown) [N-{2-[(3-aminobenzyl)sulfinyl]phenyl}-1-benzofuran-2-sulfonamide],110,58
CSc1ccc(Cl)cc1NS(=O)(=O)c1ccc(Br)cc1 [4-bromo-N-[5-chloro-2-(methylthio)phenyl]benzenesulfonamide],76,1330

SMILES,CCR2 % ANTAGONISM [%],IC50 [nM]
O=S(=O)(Nc1cc(Cl)ccc1SCc1cccc(O)c1)c1cc2ccccc2o1 [N-{5-chloro-2-[(3-hydroxybenzyl)thio]phenyl}-1-benzofuran-2-sulfonamide],98,77
CN(C)CCCSc1ccc(Cl)cc1NS(=O)(=O)c1cc2ccccc2o1 [N-(5-chloro-2-{[3-(dimethylamino)propyl]thio}phenyl)-1-benzofuran-2-sulfonamide],106,2040
"Nc1nnc(C[S+]([O-])c2ccc(Cl)cc2NS(=O)(=O)c2cc3ccccc3o2)[nH]1 (stereo not shown) [N-(2-{[(5-amino-4H-1,2,4-triazol-3-yl)methyl]sulfinyl}-5-chlorophenyl)-1-benzofuran-2-sulfonamide]",48,–
O=S(=O)(Nc1cc(Cl)ccc1SCc1cccnc1F)c1cc2ccccc2o1 [N-(5-chloro-2-{[(2-fluoropyridin-3-yl)methyl]thio}phenyl)-1-benzofuran-2-sulfonamide],76,94
C[S+]([O-])c1ccc(Cl)cc1NS(=O)(=O)c1ccc(C(F)(F)F)c([N+](=O)[O-])c1 (stereo not shown) [N-[5-chloro-2-(methylsulfinyl)phenyl]-3-nitro-4-(trifluoromethyl)benzenesulfonamide],97,54
COC(=O)CC[S+]([O-])c1ccc(Cl)cc1NS(=O)(=O)c1ccc(Cl)c(C(F)(F)F)c1 (stereo not shown) [methyl 3-{[4-chloro-2-({[4-chloro-3-(trifluoromethyl)phenyl]sulfonyl}amino)phenyl]sulfinyl}propanoate],82,108
CSc1ccc(Cl)cc1NS(=O)(=O)c1ccco1 [N-[5-chloro-2-(methylthio)phenyl]furan-2-sulfonamide],93,940
"CSc1ccc(Cl)cc1NS(=O)(=O)c1ccc(F)cc1F [N-[5-chloro-2-(methylthio)phenyl]-2,4-difluorobenzenesulfonamide]",87,–
NCCC[S+]([O-])c1ccc(Cl)cc1NS(=O)(=O)c1cc2ccccc2o1 (stereo not shown) [N-{2-[(3-aminopropyl)sulfinyl]-5-chlorophenyl}-1-benzofuran-2-sulfonamide],63,–
O=S(=O)(Cc1c[nH]cn1)c1ccc(Cl)cc1NS(=O)(=O)c1cc2ccccc2o1 [N-{5-chloro-2-[(1H-imidazol-4-ylmethyl)sulfonyl]phenyl}-1-benzofuran-2-sulfonamide],106,81
CC(C)(C)OC(=O)Nc1cc(CSc2ccc(Cl)cc2NS(=O)(=O)c2cc3ccccc3o2)ccn1 [tert-butyl {4-[({2-[(1-benzofuran-2-ylsulfonyl)amino]-4-chlorophenyl}thio)methyl]pyridin-2-yl}carbamate],40,2000
NCC[S+]([O-])c1ccc(Cl)cc1NS(=O)(=O)c1ccc(Cl)c(C(F)(F)F)c1 (stereo not shown) [N-{2-[(2-aminoethyl)sulfinyl]-5-chlorophenyl}-4-chloro-3-(trifluoromethyl)benzenesulfonamide],84,3530
Nc1cccc(C[S+]([O-])c2ccc(Cl)cc2NS(=O)(=O)c2ccc(Cl)cc2F)c1 (stereo not shown) [N-{2-[(3-aminobenzyl)sulfinyl]-5-chlorophenyl}-4-chloro-2-fluorobenzenesulfonamide],95,113
NCCSc1ccc(Cl)cc1NS(=O)(=O)c1ccc(Cl)c(C(F)(F)F)c1 [N-{2-[(2-aminoethyl)thio]-5-chlorophenyl}-4-chloro-3-(trifluoromethyl)benzenesulfonamide],97,1070
O=[N+]([O-])c1cccc(CSc2ccc(Cl)cc2NS(=O)(=O)c2cc3ccccc3o2)c1 [N-{5-chloro-2-[(3-nitrobenzyl)thio]phenyl}-1-benzofuran-2-sulfonamide],63,–
C[N+](C)([O-])CCCS(=O)(=O)c1ccc(Cl)cc1NS(=O)(=O)c1cc2ccccc2o1 [N-(5-chloro-2-{[3-(dimethylnitroryl)propyl]sulfonyl}phenyl)-1-benzofuran-2-sulfonamide],83,–
CSc1ccc(Cl)cc1NS(=O)(=O)c1cccc(Cl)c1F [3-chloro-N-[5-chloro-2-(methylthio)phenyl]-2-fluorobenzenesulfonamide],94,1920
Nc1cccc(C[S+]([O-])c2ccc(Cl)cc2NS(=O)(=O)c2ccccc2)c1 (stereo not shown) [N-{2-[(3-aminobenzyl)sulfinyl]-5-chlorophenyl}benzenesulfonamide],62,2560
